Here are results for twelve compounds from PubChem BioAssay (NCI).

Among the test systems are DU-145 prostate; OVCAR-5 ovarian; OVCAR-8 ovarian; RPMI-8226 leukemia; SF-268 CNS; SK-MEL-5 melanoma; SW-620 colon; T-47D breast; UACC-257 melanoma; SK-OV-3 ovarian.
Holding throughout (test): growth of human tumour cells (NCI), 48 h

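All cell lines were grown in 96-well plates and treated with compound for 48 hours. GI50 is the concentration that inhibits growth by half. TGI: concentration producing complete growth inhibition.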 Where only a bound is given, the exact number is not on record here.

As to `OC(CCNCc1ccccc1)c1ccc2ccccc2c1` (configuration not stated), the TGI in the assay with DU-145 prostate was 39.6 µM; with OVCAR-5 ovarian, 75.4 µM; in the assay on OVCAR-8 ovarian, 45.9 µM; with RPMI-8226 leukemia it was 73.3 µM; in the assay with SF-268 CNS, 48 µM; in the assay on SK-MEL-5 melanoma it was 32.4 µM. In addition, the TGI was found to be 43.1 µM with SW-620 colon, 49.9 µM with T-47D breast and 32.2 µM in the assay on UACC-257 melanoma.

`COc1ccc2c(c1)c(CC(=O)O)c(C)n2C(=O)c1ccc(Cl)cc1`: the TGI in the assay on DU-145 prostate, in the assay with OVCAR-5 ovarian, with OVCAR-8 ovarian, in the assay on RPMI-8226 leukemia, in the assay on SF-268 CNS and in the assay on SK-MEL-5 melanoma was above 100 µM throughout. Also, the TGI in the assay with SW-620 colon, in the assay on T-47D breast and in the assay with UACC-257 melanoma was above 100 µM each time.

In the case of `O=C(O)c1ccn(-c2cccc(-n3ccc(C(=O)O)n3)n2)n1`, the TGI in the assay with DU-145 prostate, in the assay on OVCAR-5 ovarian, in the assay with OVCAR-8 ovarian, in the assay with RPMI-8226 leukemia, in the assay with SF-268 CNS and in the assay with SK-MEL-5 melanoma was above 100 µM each time. For the same compound, the TGI in the assay with SK-OV-3 ovarian, in the assay with SW-620 colon and with UACC-257 melanoma was above 100 µM in each case.

Take `COc1c(O)cc(O)c2c(=O)cc(-c3ccccc3)oc12`: the TGI in the assay on DU-145 prostate was 79.5 µM; in the assay with OVCAR-5 ovarian, above 100 µM; in the assay on OVCAR-8 ovarian, above 100 µM; in the assay on RPMI-8226 leukemia, 37.1 µM; in the assay with SF-268 CNS, above 100 µM; with SK-MEL-5 melanoma it was above 100 µM. Further, the TGI with SK-OV-3 ovarian, in the assay on SW-620 colon and with UACC-257 melanoma was above 100 µM in each case.

As for `COc1ccccc1NC(=O)CC(=O)N1N=C(C)C(N=Nc2ccc(C(=O)O)cc2)C1=O` (configuration not stated), the TGI with DU-145 prostate, in the assay with OVCAR-5 ovarian, with OVCAR-8 ovarian, with RPMI-8226 leukemia, in the assay with SF-268 CNS and in the assay with SK-MEL-5 melanoma was above 100 µM in each case. For the same compound, the TGI in the assay on SW-620 colon, in the assay with T-47D breast and in the assay on UACC-257 melanoma was above 100 µM throughout.

As for `C/C(Nc1ccc(F)cc1)=C1/CCOC1=O`, the TGI with DU-145 prostate, in the assay with OVCAR-8 ovarian, with RPMI-8226 leukemia, with SF-268 CNS, with SK-MEL-5 melanoma and with SW-620 colon was above 100 µM each time. Besides, the TGI in the assay on T-47D breast and in the assay on UACC-257 melanoma was above 100 µM throughout.

As for `CCOC(=O)C(NC(=O)CC)(Nc1cc(C)on1)C(F)(F)F` (configuration not stated), the TGI with OVCAR-5 ovarian, in the assay on OVCAR-8 ovarian, in the assay on RPMI-8226 leukemia, in the assay with SF-268 CNS, in the assay with SK-MEL-5 melanoma and in the assay with SW-620 colon was above 100 µM in each case. Besides, the TGI in the assay on T-47D breast and in the assay on UACC-257 melanoma was above 100 µM in each case.

In the case of `COc1ccc(/C=C2\S/C(=N/Nc3nc(-c4ccccc4)cs3)NC2=O)cc1OC`, the TGI was above 100 µM with DU-145 prostate; above 100 µM with OVCAR-5 ovarian; 47.5 µM in the assay with OVCAR-8 ovarian; above 100 µM in the assay with SF-268 CNS; 31.2 µM in the assay with SK-MEL-5 melanoma; 63.7 µM in the assay on SK-OV-3 ovarian. Also, the TGI with SW-620 colon and in the assay on UACC-257 melanoma was above 100 µM throughout.

On to `CC1(c2ccc[n+](Cc3ccccc3)c2)OCCO1`, for which the TGI with OVCAR-5 ovarian, in the assay on OVCAR-8 ovarian, in the assay with RPMI-8226 leukemia, with SK-MEL-5 melanoma, with SK-OV-3 ovarian and in the assay with SW-620 colon was above 100 µM in each case. For the same compound, the TGI in the assay on UACC-257 melanoma is above 100 µM.

Take `C(CCCCc1nnc(N2CCCCC2)o1)CCCc1nnc(N2CCCCC2)o1`: the TGI in the assay with DU-145 prostate, in the assay with OVCAR-5 ovarian, in the assay on OVCAR-8 ovarian, in the assay on SF-268 CNS, in the assay with SK-MEL-5 melanoma and with SK-OV-3 ovarian was above 100 µM throughout. In addition, the TGI in the assay with SW-620 colon and with UACC-257 melanoma was above 100 µM in each case.

`COc1ccc(-c2cc(-c3ccc(Nc4ccnc5cc(Cl)ccc45)cc3)[nH]c(=O)c2C#N)c2ccccc12`: the TGI in the assay on DU-145 prostate was above 32.7 µM; in the assay with OVCAR-5 ovarian, above 100 µM; with OVCAR-8 ovarian, 5.41 µM; with RPMI-8226 leukemia, 7.28 µM; with SF-268 CNS it was above 96.6 µM; with SK-MEL-5 melanoma, above 63.4 µM. For the same compound, the results for the TGI in the assay with SK-OV-3 ovarian, in the assay with SW-620 colon and in the assay with UACC-257 melanoma were 43.7 µM, above 100 µM and 99.4 µM, respectively.

As to `COc1ccc(C(=O)/C=C/c2c(Cl)c3c(c(OC)c2Cl)OCC(=O)N3)cc1`, the GI50 in the assay on DU-145 prostate was 3.17 µM; in the assay on OVCAR-5 ovarian, 3.86 µM; in the assay on OVCAR-8 ovarian, 2.85 µM; in the assay with RPMI-8226 leukemia it was 1.07 µM; in the assay with SK-OV-3 ovarian it was 3.59 µM; in the assay with SW-620 colon, 1.81 µM. For the same compound, the GI50 with UACC-257 melanoma was 2.98 µM. Further, the TGI is above 100 µM in the assay on DU-145 prostate; above 100 µM in the assay on OVCAR-5 ovarian; 16.3 µM with OVCAR-8 ovarian; 4.07 µM in the assay with RPMI-8226 leukemia; 27.1 µM with SK-OV-3 ovarian; 3.66 µM in the assay on SW-620 colon. The TGI in the assay with UACC-257 melanoma is above 100 µM.
